Data taken from ChEMBL document CHEMBL1201862, “PubChem BioAssay data set” (2004).
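Following 48 hours of exposure in 96-well plates, responses at five concentrations were used to interpolate endpoints linearly. The concentration for 50% growth inhibition is given as GI50.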 Calls of active or inactive are those of the source. Rule as the data show it: active = GI50 up to about 1.1 µM and inactive = higher.

Experiments:
Experiment in all cases: DTP human tumour cell line panel, 48 h
[1] = test system: ACHN
[2] = test system: CCRF-CEM
[3] = test system: EKVX
[4] = test system: HCT-116
[5] = test system: HOP-92
[6] = test system: HT-29
[7] = test system: KM12
[8] = test system: M14
[9] = test system: Malme-3M
[10] = test system: NCI-H23
[11] = test system: NCI-H460
[12] = test system: NCI-H522
[13] = test system: OVCAR-3
[14] = test system: OVCAR-5
[15] = test system: RXF 393
[16] = test system: SK-MEL-28
[17] = test system: SNB-19
[18] = test system: U-251
[19] = test system: UACC-257
[20] = test system: UACC-62

| Compound | GI50 [1] | GI50 [2] | GI50 [3] | GI50 [4] | GI50 [5] | GI50 [6] | GI50 [7] | GI50 [8] | GI50 [9] | GI50 [10] | GI50 [11] | GI50 [12] | GI50 [13] | GI50 [14] | GI50 [15] | GI50 [16] | GI50 [17] | GI50 [18] | GI50 [19] | GI50 [20] |
| --- | --- | --- | --- | --- | --- | --- | --- | --- | --- | --- | --- | --- | --- | --- | --- | --- | --- | --- | --- | --- |
| N=C(CCl)NC1CN2CCC1CC2 (stereo not drawn) | 87.7 µM (inactive) | 18.6 µM (inactive) | 67.5 µM (inactive) | > 100 µM (inactive) | > 100 µM (inactive) | 48.3 µM (inactive) | > 100 µM (inactive) | > 100 µM (inactive) | > 100 µM (inactive) | > 100 µM (inactive) | > 100 µM (inactive) | 19.4 µM (inactive) | > 100 µM (inactive) | 75 µM (inactive) | > 100 µM (inactive) | > 100 µM (inactive) | > 100 µM (inactive) | 49.1 µM (inactive) | > 100 µM (inactive) | > 100 µM (inactive) |
| C[C@H](CCC1=NCCN1)[C@H]1CC[C@H]2[C@@H]3CC[C@@H]4C[C@H](O)CC[C@]4(C)[C@H]3C[C@H](O)[C@]12C | 16.9 µM (inactive) | 10.7 µM (inactive) | 18.5 µM (inactive) | 20.5 µM (inactive) | 12.2 µM (inactive) | 10.5 µM (inactive) | 11.8 µM (inactive) | 17.4 µM (inactive) | 13.7 µM (inactive) | 14.1 µM (inactive) | 13.9 µM (inactive) | 5.75 µM (inactive) | 12.1 µM (inactive) | 14.5 µM (inactive) | 18 µM (inactive) | 18.6 µM (inactive) | 8.71 µM (inactive) | 8.11 µM (inactive) | 15.4 µM (inactive) | 13.5 µM (inactive) |
| Cc1cccc2cc3cccc(C(=O)NCCN(C)C)c3nc12 | 0.0257 µM (active) | 0.0575 µM (active) | 0.362 µM (active) | 0.0354 µM (active) | 0.185 µM (active) | 0.131 µM (active) | 0.397 µM (active) | 0.433 µM (active) | 0.139 µM (active) | 0.171 µM (active) | < 0.01 µM (active) | 0.151 µM (active) | 0.366 µM (active) | 0.292 µM (active) | 0.269 µM (active) | 0.519 µM (active) | 0.191 µM (active) | 0.0689 µM (active) | 0.245 µM (active) | 0.129 µM (active) |
| CC1(C)CC[C@]2(C)[C@@H](O)C[C@]3(C)C(=CC[C@@H]4[C@@]5(C)CC[C@H](O)C(C)(C)[C@@H]5CC[C@]43C)[C@@H]2C1 | 41.4 µM (inactive) | > 100 µM (inactive) | 38.8 µM (inactive) | 41.5 µM (inactive) | 16.2 µM (inactive) | 39.2 µM (inactive) | 41.4 µM (inactive) | 93.1 µM (inactive) | 29.4 µM (inactive) | 29.4 µM (inactive) | 41.2 µM (inactive) | 25.7 µM (inactive) | 65.2 µM (inactive) | 97.3 µM (inactive) | 7.24 µM (inactive) | > 100 µM (inactive) | 61.5 µM (inactive) | 28.7 µM (inactive) | 49.5 µM (inactive) | 58.7 µM (inactive) |
| CC(C)CCCC(C)[C@H]1CCC2[C@H]3C(CC[C@@]21C)[C@@]1(C)CCC=C[C@]12C[C@@H]2[C@@H]3O (stereo partly drawn) | > 100 µM (inactive) | > 100 µM (inactive) | > 100 µM (inactive) | > 100 µM (inactive) | > 100 µM (inactive) | > 100 µM (inactive) | > 100 µM (inactive) | > 100 µM (inactive) | > 100 µM (inactive) | – | > 100 µM (inactive) | > 100 µM (inactive) | > 100 µM (inactive) | > 100 µM (inactive) | > 100 µM (inactive) | > 100 µM (inactive) | > 100 µM (inactive) | > 100 µM (inactive) | > 100 µM (inactive) | > 100 µM (inactive) |
| Oc1cc(-c2ccccc2Cl)nc2cc3c(cc12)OCO3 | 0.731 µM (active) | 0.0422 µM (active) | 0.155 µM (active) | 0.0528 µM (active) | 0.102 µM (active) | 0.0676 µM (active) | 0.0486 µM (active) | 0.11 µM (active) | 0.0598 µM (active) | 0.122 µM (active) | 0.0719 µM (active) | 0.0653 µM (active) | 0.0608 µM (active) | 1.09 µM (active) | 0.0416 µM (active) | 0.0638 µM (active) | 0.144 µM (active) | 0.0736 µM (active) | 0.443 µM (active) | 0.0574 µM (active) |
| CCOC(=O)c1nc2ccc(C(F)(F)F)cc2nc1Nc1cc(OC)c(OC)c(OC)c1 | > 100 µM (inactive) | > 100 µM (inactive) | > 100 µM (inactive) | > 100 µM (inactive) | > 100 µM (inactive) | > 100 µM (inactive) | > 100 µM (inactive) | > 100 µM (inactive) | > 100 µM (inactive) | > 100 µM (inactive) | > 100 µM (inactive) | > 100 µM (inactive) | > 100 µM (inactive) | > 100 µM (inactive) | > 100 µM (inactive) | > 100 µM (inactive) | > 100 µM (inactive) | – | > 100 µM (inactive) | > 100 µM (inactive) |
